Experimental data taken from patent US20240317746A1, “CRYSTALLINE FORMS OF AN AZETIDINE PARP1 INHIBITOR” (XinThera, Inc., priority 2023, published 2024).
≈ marks a conversion by molar mass, not a printed value. Where “and” joins values, the source holds several entries; their conditions need not be identical. Identical values can stand only once. Entries after “also recorded” stand apart in the source; their conditions may differ. Counter-ions that a name gives are not always drawn. One block for each molecule: values may come before it.

Tests used:
Assay type in all cases: physicochemical
[1] = Exposure of solid to air at about 38% RH and 22° C.; details: exposed to air at about 38% RH and 22° C.
Method: 6 g of Compound 1 Form I, about 99 wt % purity, was dissolved in a mixture of about 96 g of DCM and about 20 g MeOH at about 32° C. The solution was polish filtered and then the vessel was rinsed forward with a mixture of about 20 g of DCM and about 3.6 g of MeOH. The filtrate was charged with a solution containing about 2.28 g of L-tartaric acid dissolved in about 6 mL of water at about 22° C. A slurry of solids formed after stirring for about 1 day. The slurry was distilled under vacuum to about 3 V (about 20 mL) at about 40° C., and then cooled to about 22° C. It was charged with about 87 g of acetone, held at about 22° C. for about 1 h, and then cooled to about 0° C. After holding for about 4 h, the slurry was filtered, rinsed with about 24 g of pre-cooled acetone twice. The wet cake was dried at 50° C. with full house vacuum under nitrogen sweep for about 4 days to afford about 7.36 g of L-tartrate Form IV (with a small amount of L-tartrate Form I). […] When exposed to air at about 38% RH and 22° C., a small sample of Compound 1 L-tartrate Form IV completely converted to Compound 1 L-tartrate Form III in less than 20 min.

[2] = Stability relationship study (slurry turnover of Form II)
Method: Form II was prepared via heating starting material to 220° C. in DSC pans. Then, about 15 mg of Form II was stirred in 0.5 mL of selected solvent at desired temperatures for 2 and 5 days. Solid samples were collected by filtration and characterized by XRPD.

[3] = Preliminary solubility test: estimated solubility at RT by visual observation; details: organic solvent or mixture, thermodynamic from solid, read-out: Solubility
Method: The solubility of Compound 1 (starting material) was estimated at RT in 18 single solvents and 6 solvent mixtures by visual observation. Approximately 5 mg solids were weighed into 8 mL glass vial, and then solvent was added stepwise until solids were dissolved completely or a total of solvent volume reached 5 mL. […] The solubility was estimated and for reference only.

[4] = Solubility in bio-relevant media (SGF, FaSSIF, FeSSIF) and water; details: for XRPD 0.5 h / XRPD 2 h / XRPD 24 h: filter cake; for Solubility 0.5 h / Solubility 2 h / Solubility 24 h: average n=2
Method: At 0.5, 2 and 24 hours, about 0.6 mL of each suspension was filtered, the filtrate was analyzed by HPLC and pH meter, and the filter cake was analyzed by XRPD. The samples were prepared in duplicate (n=2) per condition. Average value (n=2) was presented.
HPLC analysis was performed with an Agilent HPLC 1260 series instrument.

[5] = pH solubility profile of Form I in pH buffers; details: for XRPD 4 h / XRPD 24 h: wet cake
Method: Different pH buffers (pH 1.0, 3.0, 5.0, 6.8 and 9.0) were prepared by method in Table 18. Appropriate amount of Form I was added into 1.4 mL of different buffers (pH=1.0, 3.0, 5.0, 6.8 and 9.0) to make suspensions. The suspensions were kept shaking with a speed of 1000 rpm at 25° C. for 4 and 24 hours. At each point, the suspensions were centrifuged, and the supernatant was inspected by UPLC/pH, and the wet cakes were analyzed by XRPD. Duplicate samples were prepared.

[6] = Solid-state stability at 60° C. (capped) and 40° C./75% RH (open)
Method: (capped) and 40° C./75% RH (open) for 7 days. Duplicate samples were prepared at each condition. The stability sample was dissolved in diluent to prepare solution at ˜1 mg/mL for HPLC purity analysis. Solid samples were analyzed by XRPD to check the crystal form. […] (capped) and 40° C./75% RH (open) for at least 7 days.

[7] = DVS test (dynamic vapor sorption, hygroscopicity); details: for hygroscopicity (in words): DVS
Method: All the three target forms remained no change after DVS test.
Dynamic Vapor Sorption (DVS) was used to study hygroscopicity on Model Q5000 SA (TA Instruments, New Castle, DE). A sample (1-10 mg) was placed in an aluminum pan and loaded on the sample side of the twin pan balance. The water sorption and desorption were studied as a function of relative humidity (RH) at 25° C. in 10% RH increments from 0% RH to 90% RH and then back to 0%. […] Data analysis was performed using Universal Analysis 2000 Version 4.7A (TA Instruments, New Castle, DE).

[8] = Mechanical stability of Form I (manual grinding); details: ground by pestle and mortar for about 1 minute and 5 minutes
Method: Appropriate amount of Form I was manually ground by pestle and mortar for about 1 minute and 5 minutes, respectively. The ground samples were analyzed by XRPD.

[9] = FaSSIF, initial pH 6.45, 37° C.
[10] = FaSSIF, initial pH 6.45, filtrate
[11] = FeSSIF, initial pH 4.99, 37° C.
[12] = FeSSIF, initial pH 4.99, filtrate
[13] = Water, initial pH 5.41, filtrate
[14] = aqueous buffer, thermodynamic from solid, pH 3.0 buffer (25 mM citrate), initial pH 3.01, solid loading 5 mg/mL, 25° C.
[15] = aqueous buffer, thermodynamic from solid, pH 5.0 buffer (25 mM citrate), initial pH 4.95, solid loading 5 mg/mL, 25° C.
[16] = aqueous buffer, thermodynamic from solid, pH 6.8 buffer (25 mM phosphate), initial pH 6.78, solid loading 5 mg/mL, 25° C.
[17] = aqueous buffer, thermodynamic from solid, pH 9.0 buffer (25 mM DEA), initial pH 9.01, solid loading 5 mg/mL, 25° C.
[18] = pH 1.0 buffer, initial pH 1.01, solid loading 60 mg/mL
[19] = pH 3.0 buffer, initial pH 3.01, solid loading 5 mg/mL
[20] = pH 5.0 buffer, initial pH 4.95, solid loading 5 mg/mL
[21] = pH 6.8 buffer, initial pH 6.78, solid loading 5 mg/mL
[22] = pH 9.0 buffer, initial pH 9.01, solid loading 5 mg/mL
[23] = simulated gastric fluid, thermodynamic from solid, pH 1.0 buffer (0.1N HCl), initial pH 1.01, solid loading 60 mg/mL, 25° C.

time to complete conversion to L-tartrate Form III [1]: less than 20 min
Structure (SMILES): C[C@@H]1[C@@H](Oc2ccc(C(=O)NC3CC3)nc2)CN1Cc1cnc2cc(Cl)c(=O)[nH]c2c1 [L-Tartrate Salt Form IV, 5-(((2R,3S)-1-((7-chloro-6-oxo-5,6-dihydro-1,5-naphthyridin-3-yl)methyl)-2-methylazetidin-3-yl)oxy)-N-cyclopropylpicolinamide]

Slurry turnover output (XRPD) Day 2 ([2]; ACN, 80° C.): Form I + II | Slurry turnover output (XRPD) Day 5 ([2]; ACN, 80° C.): Form I | Slurry turnover output (XRPD) Day 2 ([2]; Acetone, 50° C.): Form I | Slurry turnover output (XRPD) Day 2 ([2]; Acetone, RT): Form I | form after slurry in selected solvents (XRPD) ([2]; stirred at desired temperatures (RT to 80° C.) for 2 and 5 days): converted to Form I at all conditions
Structure (SMILES): C[C@@H]1[C@@H](Oc2ccc(C(=O)NC3CC3)nc2)CN1Cc1cnc2cc(Cl)c(=O)[nH]c2c1 [Freebase Form II, 5-(((2R,3S)-1-((7-chloro-6-oxo-5,6-dihydro-1,5-naphthyridin-3-yl)methyl)-2-methylazetidin-3-yl)oxy)-N-cyclopropylpicolinamide]

solubility ([3]; DCM/MeOH (4/1, v/v), DCM/MeOH (4/1)): > 50000 µg/mL | solubility ([3]; most solvent systems): < 5000 µg/mL | XRPD 0.5 h ([4]; FaSSIF): Unchanged | XRPD 2 h ([4]; FaSSIF): Unchanged | XRPD 24 h ([4]; FaSSIF): Unchanged | Solubility 0.5 h [4, 9]: 13 µg/mL (≈ 29.6 µM) | Solubility 2 h [4, 9]: 15 µg/mL (≈ 34.1 µM) | Solubility 24 h [4, 9]: 15 µg/mL (≈ 34.1 µM) | pH 0.5 h [4, 10]: 6.47 | pH 2 h [4, 10]: 6.39 | pH 24 h [4, 10]: 6.44 | XRPD 0.5 h ([4]; FeSSIF): Unchanged | XRPD 2 h ([4]; FeSSIF): Unchanged | XRPD 24 h ([4]; FeSSIF): Unchanged | Solubility 0.5 h [4, 11]: 82 µg/mL (≈ 186 µM) | Solubility 2 h [4, 11]: 83 µg/mL (≈ 189 µM) | Solubility 24 h [4, 11]: 80 µg/mL (≈ 182 µM) | pH 0.5 h [4, 12]: 5.01 | pH 2 h [4, 12]: 4.98 | pH 24 h [4, 12]: 4.82 | XRPD 0.5 h, 2 h, 24 h ([4]; SGF): Clear | solubility ([4]; SGF, 37 °C, pH 1.23, simulated gastric fluid, thermodynamic from solid, SGF, 37° C., read-out: solubility in SGF): > 5000 µg/mL | Solubility 0.5 h, 2 h, 24 h ([4]; SGF, initial pH 1.23, 37° C.): >5000 µg/mL | pH 0.5 h ([4]; SGF, initial pH 1.23, filtrate): 1.33 | pH 2 h ([4]; SGF, initial pH 1.23, filtrate): 1.20 | pH 24 h ([4]; SGF, initial pH 1.23, filtrate): 1.28 | XRPD 0.5 h ([4]; Water): Unchanged | XRPD 2 h ([4]; Water): Unchanged | XRPD 24 h ([4]; Water): Unchanged | Solubility 0.5 h ([4]; Water, initial pH 5.41, 37° C.): 11 µg/mL (≈ 25 µM) | Solubility 2 h ([4]; Water, initial pH 5.41, 37° C.): 11 µg/mL (≈ 25 µM) | Solubility 24 h ([4]; Water, initial pH 5.41, 37° C.): 10 µg/mL (≈ 22.7 µM) | pH 0.5 h [4, 13]: 5.93 | pH 2 h [4, 13]: 6.54 | pH 24 h [4, 13]: 7.54 | crystal form after solubility test ([4]; XRPD of filter cake): remained unchanged | solubility in the other media (in words) ([4]; media other than SGF (FaSSIF, FeSSIF, water), 37° C.): low solubility | solubility at 4 h [5, 14]: 2460 µg/mL (≈ 5600 µM) | solubility at 24 h [5, 14]: 784 µg/mL (≈ 1780 µM) | solubility at 4 h [5, 15]: 83 µg/mL (≈ 189 µM) | solubility at 24 h [5, 15]: 84 µg/mL (≈ 191 µM) | solubility at 4 h [5, 16]: 8 µg/mL (≈ 18.2 µM) | solubility at 24 h [5, 16]: 8 µg/mL (≈ 18.2 µM) | solubility at 4 h [5, 17]: 14 µg/mL (≈ 31.8 µM) | solubility at 24 h [5, 17]: 14 µg/mL (≈ 31.8 µM) | solubility ([5]; pH 1, simulated gastric fluid, thermodynamic from solid, 0.1 N HCl, 25° C., read-out: solubility (highest)): > 40000 µg/mL | pH 4 h [5, 18]: 2.48 | pH 24 h [5, 18]: 2.38 | XRPD 4 h ([5]; pH 1.0 buffer): Form I | XRPD 24 h ([5]; pH 1.0 buffer): Form I | form change of the solid ([5]; pH 3 buffer at 24 h): converted into Citrate Form I | pH 4 h [5, 19]: 3.30 | pH 24 h [5, 19]: 3.45 | XRPD 4 h ([5]; pH 3.0 buffer): Form I | XRPD 24 h ([5]; pH 3.0 buffer): Citrate Form I | pH 4 h [5, 20]: 4.88 | pH 24 h [5, 20]: 4.90 | XRPD 4 h ([5]; pH 5.0 buffer): Form I | XRPD 24 h ([5]; pH 5.0 buffer): Form I | solubility (in words) ([5]; pH 6.8 and 9 buffers, 25° C.): low | pH 4 h [5, 21]: 6.75 | pH 24 h [5, 21]: 6.79 | XRPD 4 h ([5]; pH 6.8 buffer): Form I | XRPD 24 h ([5]; pH 6.8 buffer): Form I | pH 4 h [5, 22]: 9.16 | pH 24 h [5, 22]: 9.15 | XRPD 4 h ([5]; pH 9.0 buffer): Form I | XRPD 24 h ([5]; pH 9.0 buffer): Form I | solubility at 4 h [5, 23]: > 44400 µg/mL | solubility at 24 h [5, 23]: > 44500 µg/mL | form change of the solid ([5]; the other conditions (other buffers and time points)): remained unchanged | XRPD - 7 d ([6]; 40° C./75% RH (open), 7 days): Unchanged | physical and chemical stability ([6]; 60° C. (capped) and 40° C./75% RH (open), 7 days): physically and chemically stable | XRPD - 7 d ([6]; 60° C. (capped), 7 days): Unchanged | Initial Purity ([6]; before storage, HPLC): 99.16 area % | hygroscopicity (in words) [7]: slightly hygroscopic | hygroscopicity (in words) ([7]; listed as Form I): slightly hygroscopic | crystal form after DVS test ([7]; XRPD after DVS): remained unchanged | water uptake ([7]; at 80% RH): 0.5% | water uptake ([7]; at 80% RH, listed as Form I): 0.5% and < 1% | water uptake ([7]; at 90% RH): 0.6% | water uptake ([7]; at 90% RH, listed as Form I): 0.6%
Structure (SMILES): C[C@@H]1[C@@H](Oc2ccc(C(=O)NC3CC3)nc2)CN1Cc1cnc2cc(Cl)c(=O)[nH]c2c1 [Freebase Form I, 5-(((2R,3S)-1-((7-chloro-6-oxo-5,6-dihydro-1,5-naphthyridin-3-yl)methyl)-2-methylazetidin-3-yl)oxy)-N-cyclopropylpicolinamide]
relative stability of the crystal form ([2]; anhydrates Form I vs Form II): more stable anhydrate at RT to 80 °C; also recorded: Stable below 80 °C | crystal form after grinding (XRPD) [8]: remained unchanged with little crystallinity decrease
